In ChEMBL document CHEMBL1201862, “PubChem BioAssay data set” (2004) one finds EC50 and AC50 data, which are given here for 26 molecules.

Calls of active or inactive are those of the source.

Series [1] can be described thus: inhibitors of intracellular T. cruzi replication, confirmation, NIH3T3 host cells, beta-gal luminescence (AID 2044).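 Further: intracellular parasites grown in NIH/3T3 mouse fibroblasts as host cells; luminescent beta-galactosidase reporter signal from transgenic T. cruzi replicating inside host cells; inhibitors lower the luminescence signal.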 The format is functional, cell-based.
Series [2] is described as follows: cytotoxicity toward NIH3T3 fibroblasts, dose response, counter-screen, cell-based, ATP luminescence, mouse fibroblasts (AID 2010).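 Further: cells exposed to compound for about 90 hours before reading.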 The format is functional. (In general: The purpose of a counterscreen is to sort out artefacts and off-target activity.)
The next series concerns the target Cytochrome P450 3A4 (Homo sapiens, UniProt P08684).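 Further: CYP3A4 tested as one member of a cytochrome P450 panel screen.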
The next series deals with Cytochrome P450 2C19 (Homo sapiens, UniProt P33261). Briefly: Cytochrome panel assay with activity outcomes. Panel member name: p450-cyp2c19 Compounds with AC50 equal or less than 10 uM are considered active. The format is functional.
In series [3] the test system is Streptococcus sp. 'group A'. Briefly: growth inhibition of control SK(-) GAS strain, dose response, counter-screen for streptokinase expression inhibitor project, luminescence, kanamycin, BacTiterGlo, confirmation (AID 1900). The format is functional, organism-based.
The subject of another series is Streptococcus. The series can be described thus: Group A Streptococcus viability loss, dose response, counter-screen for streptokinase expression inhibitor project, luminescence, BacTiterGlo (AID 1915).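 Further: potency for reduction of bacterial viability or growth.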 The format is functional, organism-based.

Chain of Cytochrome P450 3A4 (P08684 whole entry): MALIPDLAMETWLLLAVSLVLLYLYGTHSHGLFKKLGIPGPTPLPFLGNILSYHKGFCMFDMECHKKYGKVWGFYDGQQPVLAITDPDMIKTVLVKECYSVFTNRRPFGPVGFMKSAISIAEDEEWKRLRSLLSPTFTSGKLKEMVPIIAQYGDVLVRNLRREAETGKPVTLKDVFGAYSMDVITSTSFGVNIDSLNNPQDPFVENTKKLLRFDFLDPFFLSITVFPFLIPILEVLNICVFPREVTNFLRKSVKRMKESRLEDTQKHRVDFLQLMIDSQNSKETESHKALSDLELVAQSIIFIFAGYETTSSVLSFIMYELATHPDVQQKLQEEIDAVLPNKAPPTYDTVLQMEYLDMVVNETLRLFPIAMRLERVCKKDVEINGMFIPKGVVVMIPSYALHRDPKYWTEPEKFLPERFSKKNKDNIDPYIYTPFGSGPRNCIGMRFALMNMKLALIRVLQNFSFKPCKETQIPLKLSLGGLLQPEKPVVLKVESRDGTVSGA
Chain of Cytochrome P450 2C19 (P33261 whole entry): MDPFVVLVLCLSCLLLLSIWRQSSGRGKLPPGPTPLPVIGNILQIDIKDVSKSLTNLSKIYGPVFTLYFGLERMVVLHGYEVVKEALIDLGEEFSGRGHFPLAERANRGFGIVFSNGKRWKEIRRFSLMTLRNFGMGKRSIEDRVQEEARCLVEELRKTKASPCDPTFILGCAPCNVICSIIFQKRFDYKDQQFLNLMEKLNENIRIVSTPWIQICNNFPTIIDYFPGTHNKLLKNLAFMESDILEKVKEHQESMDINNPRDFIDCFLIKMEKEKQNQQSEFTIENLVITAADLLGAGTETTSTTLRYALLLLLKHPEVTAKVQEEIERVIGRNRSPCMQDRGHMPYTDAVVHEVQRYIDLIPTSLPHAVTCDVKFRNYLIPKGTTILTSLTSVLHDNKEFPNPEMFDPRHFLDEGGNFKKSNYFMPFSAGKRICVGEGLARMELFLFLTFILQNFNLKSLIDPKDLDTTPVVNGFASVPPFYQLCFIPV

Usually EC50 stands for the midpoint of the concentration-response curve. Consider `CN1CCN(CCOc2ccc(Cc3ccccc3)cc2)CC1`, for which the EC50 in series [1] was 0.378 µM (active); in series [2] it was > 60 µM (not active).
For `COc1ccc2ccccc2c1CNC(C)CCc1ccccc1` (configuration not stated) the same measures were 2.94 µM (active) and > 60 µM (not active).
The like results for `Cc1cc(C)c2nc(N(CCCN(C)C)C(=O)c3ccc(S(=O)(=O)N4CC(C)OC(C)C4)cc3)sc2c1` (configuration not stated) were, in that order, 0.297 µM (active) and > 30 µM (not active).
As to `CC(C)(C)c1ccc(-c2nc3c(C#N)c(-c4ccc5c(c4)OCO5)ccn3n2)cc1`, the EC50 in series [1] is 1.46 µM (active); in series [2], > 60 µM (not active).
Broadly, the AC50 is the midpoint of the concentration-response curve, whichever way the signal moves. In the case of `CCOC(=O)C(C)Sc1ncc(OC)c(Sc2ccc(Cl)cc2)n1` (configuration not stated), the half-maximal activity concentration (AC50) on Cytochrome P450 3A4 is 20 µM (inconclusive).
For `O=C(O)CN1CCN(Cc2ccccc2Cl)C1=O`, at Cytochrome P450 3A4, the half-maximal activity concentration (AC50) is 28.2 µM (inconclusive).
Consider `COc1ccccc1CN1CC[C@@]2(CCCN(S(C)(=O)=O)C2)C1`, for which the AC50 at Cytochrome P450 3A4 is 20 µM (inconclusive).
In the case of `CC(=O)NS(=O)(=O)c1ccc(NC(=S)NC(=O)C(C)(C)C)cc1`, the AC50 result on Cytochrome P450 2C19 is reported as “inconclusive”.
Turning to `COc1cc(Cl)cc(/C=C/c2ccc3cccc(O)c3n2)c1OC`, the results for the EC50 (in series [3]; in the series on Streptococcus) were 0.851 µM (active) and 1.85 µM (active), respectively.
Take `Cc1ccccc1-c1nc(-c2ccc(NC(=O)c3cccs3)cc2)no1`: on Cytochrome P450 3A4, the concentration at half-maximal activity (AC50) was 39.8 µM (inconclusive).
With `Cn1c(=O)c(-c2ccc(Cl)cc2)nc2cnc(N3CCNCC3)nc21`, the AC50 at Cytochrome P450 3A4 was 20 µM (inconclusive).
For `CCOC(=O)c1c(N=C(S)N2CCN(C)CC2)sc(C)c1-c1ccccc1`, the EC50 in series [3] was 6.75 µM (active); in series [1], 0.467 µM (active); in series [2], > 30 µM (not active); in the series with Streptococcus it was > 150 µM (not active).
With `Cc1ccc(/C=C/c2ccc(=O)n(Cc3ccc(Cl)cc3Cl)n2)cc1`, at Cytochrome P450 2C19 (read-out: AC50), the AC50 is 4.47 µM (inconclusive).
As for `Cc1ccc(C)n1N1C(=O)/C(=C\c2ccc(Cl)cc2)SC1=S`, on Cytochrome P450 3A4, the AC50 is 15.8 µM (inconclusive).
As to `O=C(Nc1ccccc1)N1CC[C@@]2(CCCN(C(=O)c3cnccn3)C2)C1`, at Cytochrome P450 3A4, the AC50 is 15.8 µM (inconclusive).
Same read-out and setting: then `CCN1CCCC1Cn1cnc2c3cc(C)ccc3nc-2c1O` (configuration not stated), with 22.4 µM (inconclusive).
On to `CN(C)CCn1c(=O)n(Cc2ccccc2)c(=O)c2c3c(sc21)CCCCC3`, for which the EC50 in series [1] is 0.505 µM (active); in series [2] it was > 60 µM (not active).
The like results for `COc1ccc(-n2cc(CN(C)C(C)c3ccncn3)c(-c3cccc(F)c3)n2)cc1` (configuration not stated) were, in that order, 2.99 µM (active) and > 60 µM (not active).
As for `Cc1cc(S(=O)(=O)Nc2ccc(C(=O)NCC(c3ccco3)N3CCCC3)cc2)ccc1F` (configuration not stated), the values for the EC50 in series [1] and in series [2] were 0.578 µM (active) and > 60 µM (not active), respectively.
For `Cc1ccc(-c2cn(S(=O)(=O)c3cccc([N+](=O)[O-])c3)nc2N)cc1`, the EC50 in series [1] is 1.03 µM (active); in series [2], > 30 µM (not active).
For `CCCCn1c(-c2cccc3ccccc23)nc2cc3nc(O)c(C(C)C)nc3cc21` the same measures were 1.08 µM (active) and > 60 µM (not active).
On to `COc1cc(/C=C(/NC(=O)c2ccccc2Cl)C(=O)O)cc(OC)c1OC`, for which the AC50 at Cytochrome P450 3A4 was 14.1 µM (inconclusive).
`CC(C)Oc1c(Br)cc(Br)cc1/C=N/NC(N)=S`: the EC50 is 1.35 µM (active) in series [1] and > 30 µM (not active) in series [2].
Regarding `C/C(=N\NC(N)=S)C1=CCC2C3CC[C@H]4CC(O)CC[C@]4(C)C3CC[C@]12C` (some centres not stated), the EC50 is 0.159 µM (active) in series [1] and 9.97 µM (active) in series [2].
For the molecule `Brc1ccc(-c2ccc(/C=N/Nc3nc4ccccc4[nH]3)o2)cc1`, the EC50 in series [1] is 1.03 µM (active); in series [2], > 60 µM (not active).
As to `CCOc1cc(/C=N/n2cnnc2)c(Br)cc1O`, at Cytochrome P450 3A4, the AC50 was 14.1 µM (inconclusive).
